# Patent US11352315B2, “Compositions and methods comprising a triaryl polyamine” (Curza Global, LLC, priority 2017, dated 2022)
# Tests used:
# A. baumannii [1] = test: MIC analysis; type: cell-based; details: Acinetobacter baumannii, 24 hours
# Protocol: (§1) To determine the MIC of polyamine compounds, the protocol described herein was used.
# (§2) In brief, a 0.5 McFarland of each bacterial isolate was made. A 0.5 McFarland is a measure of turbidity in a liquid sample that contains approximately 1×10^^8 CFU/mL. The 0.5 McFarland standard was diluted in cation adjusted Mueller Hinton Broth (CAMHB), and 50 μL of broth were added to a well of a 96-well plate. In addition, 50 μL of CAMHB that contained a desired concentration of antimicrobial were also added to the well for a final volume of 100 μL and a final concentration of approximately 5×10^4 CFU/well (which equated to approximately 5×10^5 CFU/mL). Each well contained a desired amount of polyamine compound in order to experimentally determine the MIC. Each 96-well plate was incubated at 37° C. for 24 hours. The contents of each well were plated on tryptic soy agar (TSA). TSA plates were incubated for 37° C. for 24 hours after which the number of CFU were counted and used to calculate the CFU/mL that remained after exposure to varying concentrations of compound. This procedure was repeated n=8 times for each concentration of antimicrobial.
# P. aeruginosa [2] = test: MIC analysis; type: cell-based; details: Pseudomonas aeruginosa, 24 hours
# Protocol: (§3) A clinical strain of MRSA, isolated from a patient who underwent arthroscopic knee surgery and characterized by ARUP Laboratories, Salt Lake City, Utah, was used for this study in addition to Pseudomonas aeruginosa ATCC 27853 and Alcanivorax borkumensis ATCC 700651. P. aeruginosa was resuspended in BHI broth, grown overnight at 37° C. and transferred to fresh BHI with 30% glycerol for storage at −80° C. The MRSA isolate was likewise stored in BHI with 30% glycerol at −80° C. […] Before performing MIC analysis and biofilm experiments, the frozen stocks of MRSA and P. aeruginosa were streaked onto Columbia blood agar plates and grown overnight at 37° C. A. borkumensis ATCC 700651 was resuspended from a lyophilized pellet into marine broth, grown overnight at 30° C. and passaged on marine agar plates prior to experimentation.
# as §1, §2
# MRSA [3] = test: MIC analysis; type: cell-based; details: Staphylococcus aureus, 24 hours
# Protocol: as §3, §1, §2
# A. baumannii [4] = test: Wound healing study, porcine excision wound model (Example 3); type: in vivo, Acinetobacter baumannii; details: for CFU/g Tissue: necropsy at 28 days
# Protocol: An IACUC-approved in vivo analysis utilized an excision wound model in swine. Up to 32 partial thickness wounds were created/animal using a 1 cm biopsy punch (FIG. 1A). Wounds were inoculated with ^˜1×10^8 colony forming units (CFU) of A. baumannii in the planktonic or biofilm phenotype. Well-established biofilms were grown on the surface of bio-absorbable collagen in a modified CDC biofilm reactor for 8 days (FIG. 1B). An n=8 wounds were used for each treatment group.
# For the treatment groups, infection was allowed to establish in each wound for 5 days after which time treatment with an antimicrobial began. […] In a separate pig, wounds were inoculated as above and a combination of colistin/imipenem (2.5 mg/each) was administered IV for 14 days for comparison to the current clinical standard of care for A. baumannii. […] Swine were monitored for 28 days. Wound size was measured daily. Culture swabs were collected regularly. At the time of necropsy, a 5 mm biopsy punch was used to collect tissue and calculate CFU/g using standard microbiological procedure. ANOVA analysis was used to compare differences in data with alpha 0.05.
# MRSA [5] = test: EBEC analysis, high number biofilms on PEEK membranes; type: cell-based, Staphylococcus aureus; details: 24 hours
# Protocol: (§4) To determine the efficacy of polyamine compounds against high number biofilms, biofilms were grown on the surface of polyetheretherketone (PEEK) membranes using a membrane biofilm reactor. This reactor was similar to the CDC biofilm reactor, but rather than growing biofilms on coupon surfaces, the reactor was modified to hold PEEK membranes. In short, to grow biofilms within this system, 500 mL of brain heart infusion (BHI) broth were inoculated with 1 mL of a 0.5 McFarland. The reactor was placed on a hot plate set at 34° C. and the bacteria were grown under batch conditions for 24 hours.
# (§5) A solution of 10% BHI was then flowed through the reactor at a rate of 6.94 mL/min for an additional 24 hours. PEEK membranes were then removed and placed into 2 mL of CAMHB that contained a desired concentration of polyamine compound or antibiotic. The EBEC was defined as the concentration of antimicrobial required to reduce a biofilm from approximately 10^9 CFU/PEEK membrane to approximately 10^2 CFU/PEEK membrane in a 24-hour period.
# A. baumannii [6] = test: as above; type: cell-based, Acinetobacter baumannii; details: 24 hours
# Protocol: as §4, §5
# [7] = system: A. baumannii ATCC BAA 1605 biofilms; test: Biofilm efficacy in CAMHB broth, CDC biofilm reactor (Example 5); type: cell-based, Acinetobacter baumannii; details: 24 hr
# Protocol: (§8) The isolate was maintained on Columbia blood agar and passaged as necessary with overnight incubation at 37° C.
# Biofilms were grown on polycarbonate coupons in a CDC biofilm reactor following the manufacturer's recommendation. Once assembled and autoclaved, the reactor was inoculated. To do so, a fresh overnight culture of A. baumannii was used to make a 0.5 McFarland standard of the bacterial isolate (˜5×10^7 CFU/mL). One mL of the 0.5 McFarland solution was inoculated into 500 mL of BHI in the CDC biofilm reactor. The reactor was placed on a hot plate set at 34° C. and a baffle rotation of 130 rpm for 24 hr. After 24 hr batch growth, a continuous flow of 10% BHI was flowed through the reactor at ˜6.9 mL/min for an additional 168 hr (7 days).
# A 100 μL aliquot of broth was removed and plated using a 10-fold dilution series in order to quantify the CFU/coupon that remained. Testing was performed with n=3 repeats per concentration. A baseline of growth was determined by quantifying n=3 coupons/reactor immediately following growth.
# [8] = system: A. baumannii ATCC BAA 1605; test: MIC testing against the planktonic phenotype (Example 5); type: cell-based; details: Acinetobacter baumannii, BAA1605, 24 hr at 37° C.
# Protocol: as §8
# Minimum inhibitory concentration (MIC) testing against the planktonic phenotype was performed first. To do so, a modified protocol of the Clinical and Laboratory Standards Institute (CLSI) guideline M100 was used. In short, using a fresh overnight culture of bacteria, a 0.5 McFarland standard was made in PBS using a nephelometer, then diluted to achieve a concentration of ˜7.5×10^5 CFU/mL. A 96-well plate was set up such that a final volume of 100 μL was present in each well. Column 1 served as the negative control of growth (antibiotic only without bacteria added) and Column 11 served as the positive control of growth (bacteria only, no antibiotic).
# Into columns 2-11, 50 μL of CAMHB were added to each well. […] The solution was mixed, then 50 μL were removed and added to wells of column 3. This 1:2 dilution process was continued through column 10. Lastly, into each well of columns 2-11, 50 μL of the prepared bacterial solution were added. […] The 96-well plate was covered with adhesive film and incubated 24 hr at 37° C. The concentration of antibiotic that inhibited pellet formation or turbidity was considered the MIC.
# A. baumannii [9] = test: In vivo efficacy, porcine excision wound model (Example 6); set-up: species or system Acinetobacter baumannii; details: for Last Day that A. baumannii was Detected in At Least One Wound by Culture Swab / Log10 Transformed CFU/g Tissue at Necropsy (Day 28) / Last Day that A. baumannii was Detected in At Least One Wound: pig
# Text: Four Yorkeshire pigs with weight in the range of approximately 40-50 kg were quarantined for a minimum of 7 days. Positive reinforcement (Swedish Fish®, marshmallows, Snickers® bars, fruit and/or other treats) was provided once daily to help the pigs become accustom to having their back manipulated—e.g., a back scratch with a soft brush—by a research team member. A custom-fit jacket was also placed on pigs during the acclimation period to allow them to become aware of the covering that would be on their body.
# The night before a surgical procedure was to be performed, pigs were fasted. To perform surgery, pigs were anesthetized initially with a combination of tiletamine-zolazepam (Telazol®; 4.4 mg/kg), Ketamine (2.2 mg/kg) and Xylazine (2.2 mg/kg). Pigs were intubated, given isoflurane inhalant at 0.5-5.0%, transported to a surgical suite, placed in sternal recumbency and clipped/razor-shaved of hair in the region where excision wounds would be created. Pigs were rotated to dorsal recumbency and the jugular vein area was sterilely prepped using alternating betadine/isopropyl alcohol. Once prepped, the site was sterilely draped and a VAP was implanted. To do so, a ventral midline incision was made to isolate the jugular vein. A catheter was placed in the vein and secured. A second incision was made on the dorsal side of the neck and a tunnel created along the subcutaneous space from the second incision to the jugular vein. The catheter was passed through the tunnel. A VAP was anchored subdermally in the dorsal neck space with non-absorbable suture (e.g., Proline). The catheter was connected to the VAP and secured in the jugular vein. Both incision sites were closed using absorbable suture (e.g., Vicryl).
# With a VAP in place, a pig was rotated to sternal recumbency. The back was sterilely prepped for surgery, then draped. Using a 1 cm biopsy punch, excision wounds were created with a separation of approximately 2 cm between each wound. Wounds were organized into three or four sections with n=8 wounds/section (see FIG. 5). To reduce bleeding during wound creation, wound beds were treated with μL quantities of dilute epinephrine (1 mg/mL) as needed by the surgeon. Sterile saline-soaked gauze sponges were placed on excised wounds to maintain moisture as additional wounds were created. Once created, wounds were inoculated with bacteria (with the exception of negative control wounds) in either the planktonic or biofilm phenotype (see FIG. 5).
# For wounds inoculated with planktonic bacteria, 2-3 colonies from a fresh overnight culture of A. baumannii were adjusted to a turbidity of 10% (˜1×10^9 CFU/mL) in sterile PBS using a nephelometer. One hundred L were pipetted into wound beds on the left flank of an animal (see FIG. 5).
# Biofilm inoculation was performed by first growing biofilms on absorbable collagen for a total of 192 hrs (8 days) as described and transported to the OR in approved containers. Once the excision wounds were created, biofilm-containing collagen coupons were aseptically placed into wounds (one coupon/wound) on the right flank of an animal (see FIG. 1). […] Following inoculation, tincture of benzoin was applied to the border of each wound section to help maintain bandage adherence. Wounds were bandaged with a non-stick Telfa pad and Tegaderm. A custom jacket was also placed to further protect bandaging. Pigs were recovered and allowed to eat and drink ad libitum.
# All wounds were reinoculated with planktonic or biofilm bacteria once daily for 3 days following the surgical procedure (total of 4 inoculations). […] To perform the reinoculations, planktonic bacteria were made fresh each day.
# P. aeruginosa [10] = test: MBEC analysis, MBEC Inoculation Tray (column headed MBC); type: cell-based; details: Pseudomonas aeruginosa, 24 hours
# Text: (§6) To determine the MBEC of each polyamine compound, the MBEC Inoculation Tray by Innovotech, formerly known as the Calgary biofilm device, was used. Within this device, biofilms grow on the surface of polystyrene pegs, 96 of which are attached to a lid. These pegs are inserted into a flat bottom 96-well plate. In this instance, the MBEC of a molecule was defined as the concentration of compound (in μg/mL) required to reduce 10^5 or 10^6 CFU/peg (biofilm levels varied by isolate) to 10^2 CFU/peg in a 24-hour period.
# (§7) Following the manufacturer's guidelines, biofilms were grown on the surface of each peg by first making a 0.5 McFarland of each isolate. The 0.5 McFarland was diluted 1:100 in CAMHB. Into each well of a flat bottom 96-well plate, 150 μL of broth were pipetted. The plate was shaken at 100 rpm for 24 hours (P. aeruginosa and A. baumannii) or 48 hours (MRSA). The pegs were then placed into a separate flat bottom 96-well plate for 10 seconds with 200 μL of phosphate buffered saline (PBS) in each well to remove nonadherent cells. The lid was then placed into a 96-well plate that contained varying concentrations of antimicrobial with 200 μL per well. The plate was incubated for 24 hours at 37° C. after which time 100 μL of broth were plated on TSA. TSA plates were incubated 24 hours at 37° C. and the number of CFU counted to calculate the CFU/peg. In this instance, the MBEC was defined as the concentration of antimicrobial required to reduce 10^5 or 10^6 CFU/peg to 10^2 CFU/peg in a 24 hour period.
# MRSA [11] = test: as above; type: cell-based; details: Staphylococcus aureus, 24 hours
# Text: as §6, §7
# A. baumannii [12] = test: as above; type: cell-based; details: Acinetobacter baumannii, 24 hours
# Text: as §6, §7
# P. aeruginosa [13] = test: EBEC analysis, high number biofilms on PEEK membranes; type: cell-based, Pseudomonas aeruginosa; details: 24 hours
# Protocol: as §4, §5
# [14] = debrided wounds, biofilm phenotype
# [15] = debrided wounds, planktonic phenotype
# [16] = undebrided wounds, biofilm phenotype
# [17] = undebrided wounds, planktonic phenotype
smiles,measurement,setting,value
"CCC(CC)CNCCCNCCCNCc1ccc(-c2cc(-c3ccc(CNCCCNCCCNCC(CC)CC)cc3)cc(C(C)(C)C)c2)cc1 [CZ-1-179, N^1,N^1′-((5′-(tert-butyl)-[1,1′:3′,1″-terphenyl]-4,4″-diyl)bis(methylene))bis(N^3-(3-((2-ethylbutyl)amino)propyl)propane-1,3-diamine)]",MIC,A. baumannii [1],2 µg/mL
same,MIC,P. aeruginosa [2],4 µg/mL
same,MIC,MRSA [3],0.5 µg/mL
same,CFU/g Tissue,A. baumannii [4]; swine wounds inoculated with biofilm bacteria,0.00 CFU/g Tissue
same,CFU/g Tissue,A. baumannii [4]; swine wounds inoculated with planktonic bacteria,0.00 CFU/g Tissue
same,speed of eradication of A. baumannii,"A. baumannii [4]; swine wounds, topical",faster than SSD
same,EBEC,MRSA [5],250 µg/mL
same,EBEC,A. baumannii [6],500 µg/mL
same,CFU/coupon remaining,[7]; 0.00125% (12.5 μg/mL),~9.2×10^5 CFU/coupon
same,log10 reduction of biofilm,[7]; 0.00125% (12.5 μg/mL),~2 log10
same,CFU/coupon remaining,[7]; […] (25 μg/mL),~4.8×10^3 CFU/coupon
same,log10 reduction of biofilm,[7]; […] (25 μg/mL),~4 log10
same,eradication of biofilms,"[7]; concentrations from 2% (20 mg/mL) down to 0.005% (50 μg/mL), polycarbonate coupons",full eradication of biofilms
same,MIC,[8],2 µg/mL
same,Day after which A. baumannii was no longer detected by culture,A. baumannii [9]; Pig 2 (topical agents only),6 days
same,A. baumannii by culture on Day 6,A. baumannii [9]; Pig 4 (IV+topical products),none of the wounds
same,Day on which healing was obvious,A. baumannii [9]; Pig 4 (IV+topical products),≤ 8 days
same,Day on which signs of infection resolved,A. baumannii [9]; Pig 4 (IV+topical products),≤ 6 days
same,Day on which wound contraction was notable,"A. baumannii [9]; Pig 4 (IV+topical products), biofilm wounds",≤ 7 days
same,Day on which wound contraction was notable,"A. baumannii [9]; Pig 4 (IV+topical products), planktonic wounds",≤ 7 days
same,reduction of bioburden,"A. baumannii [9]; Pig 4, in combination with IV antibiotics",reduced completely within two weeks
same,days sooner signs of infection cleared than the host alone,A. baumannii [9]; pig wounds,3 to 4 days
same,Last Day that A. baumannii was Detected in At Least One Wound by Culture Swab,A. baumannii [9]; [14],5
same,Log10 Transformed CFU/g Tissue at Necropsy (Day 28),A. baumannii [9]; [14],0
same,Last Day that A. baumannii was Detected in At Least One Wound by Culture Swab,A. baumannii [9]; [15],5
same,Log10 Transformed CFU/g Tissue at Necropsy (Day 28),A. baumannii [9]; [15],0
same,Last Day that A. baumannii was Detected in At Least One Wound,A. baumannii [9]; [16],5
same,Log10 Transformed CFU/g Tissue at Necropsy (Day 28),A. baumannii [9]; [16],0
same,Last Day that A. baumannii was Detected in At Least One Wound,A. baumannii [9]; [17],5
same,Log10 Transformed CFU/g Tissue at Necropsy (Day 28),A. baumannii [9]; [17],0
same,MBC,P. aeruginosa [10],4 µg/mL
same,MBC,MRSA [11],1 µg/mL
same,MBC,A. baumannii [12],4 µg/mL
"CC(C)CCNCCCNCCCNCc1cccc(-c2cc(-c3cccc(CNCCCNCCCNCCC(C)C)c3)cc(C(C)(C)C)c2)c1 [CZ-1-182, N^1,N^1′-((5′-(tert-butyl)-[1,1′:3′,1″-terphenyl]-3,3″-diyl)bis(methylene))bis(N^3-(3-(isopentylamino)propyl)propane-1,3-diamine)]",MIC,A. baumannii [1],32 µg/mL
same,MIC,P. aeruginosa [2],4 µg/mL
same,MIC,MRSA [3],0.25 µg/mL
same,EBEC,MRSA [5],100 µg/mL
same,EBEC,A. baumannii [6],300 µg/mL
same,EBEC,P. aeruginosa [13],150 µg/mL
